Experiment [1] has as its system carrageenan induced paw edema. As to the kind of experiment: Carrageenan induced paw edema, effect on pre-existing inflammation. In kind it is in vivo, rat. Conditions: 10 mg kg^−1 ip 60 min after carrageenan. The procedure:
Paw thickness (mm) was used as an index of inflammation and measured at 30 min, 1 h, 2 h, 3 h, 4 h, 5 h, 6 h, 8 h, and 24 h after the carrageenan injection.
Paw thickness (mm) was used as index of inflammation and measured at 30 min, 1 h, 2 h, 3 h, 4 h, 5 h, 6 h, 8 h, and 24 h after the carrageenan injection.
(The carrageenan paw model is a standard test of acute inflammation.)

For experiment [2], the system named is acetic acid induced writhings in rat. In words: Acetic acid induced writhing (analgesic activity). Conditions: ip. (An intraperitoneal irritant provokes the stretching counted in writhing tests.)
Method: In-vivo biological experiments were performed on male wistar rat (250–300 g). […] The animals were given free supply of food and water. […] Acetic acid induced algesia model and carragennan induced inflammatory model were used for these studies. […] All the doses were administered intraperitoneally.
Analgesic activity was studied using acetic acid induced writhing. Animals in 13 groups, each consisting of 5 animals, were used. Intraperitoneal administration of 0.6% acetic acid induced abdominal writhings that were characterized by arching of back, extension of hind limbs and contraction of abdominal musculature[36]. […] All the drugs were administered intraperitoneally.
Experiment [3] relates to carrageenan-induced inflammation in rat. As to the kind of experiment: Carrageenan induced paw inflammation (pretreatment).
Method: In-vivo biological experiments were performed on male wistar rat (250–300 g). […] The animals were given free supply of food and water. The use of animals for the biological studies was duly permitted by the institutional animal ethical committee (IAEC) of the University. […] All the doses were administered intraperitoneally.
The paw thickness of the animals was measured with vernier callipre at 1 h intervals up to the 5th hour and compared with the control.
For anti-inflammatory activity, carageenan induced paw edema model with three groups of animals, 5 in each, were used[22]. All the drugs were administered intraperitoneally.
A further experiment has as its target T1, COX-2 (Homo sapiens, UniProt P35354).
T1 sequence (P35354 18-604): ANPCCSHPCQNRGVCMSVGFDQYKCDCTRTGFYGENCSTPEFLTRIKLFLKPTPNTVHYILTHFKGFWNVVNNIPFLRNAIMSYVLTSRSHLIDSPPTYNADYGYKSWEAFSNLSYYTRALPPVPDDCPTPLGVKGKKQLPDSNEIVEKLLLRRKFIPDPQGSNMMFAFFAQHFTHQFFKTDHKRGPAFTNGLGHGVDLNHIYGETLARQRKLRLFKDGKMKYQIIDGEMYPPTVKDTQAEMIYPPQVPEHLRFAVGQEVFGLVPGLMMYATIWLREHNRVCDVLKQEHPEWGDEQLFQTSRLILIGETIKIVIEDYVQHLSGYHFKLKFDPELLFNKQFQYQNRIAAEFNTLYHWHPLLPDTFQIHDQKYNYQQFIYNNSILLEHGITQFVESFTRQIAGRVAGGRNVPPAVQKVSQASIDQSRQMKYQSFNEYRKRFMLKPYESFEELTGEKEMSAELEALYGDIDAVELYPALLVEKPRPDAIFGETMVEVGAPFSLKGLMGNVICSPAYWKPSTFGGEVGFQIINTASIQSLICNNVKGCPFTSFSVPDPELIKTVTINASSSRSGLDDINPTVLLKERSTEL
As to the kind of experiment: Human whole blood assay for COX-2 (LPS stimulated PGE2). In kind it is cell-based. Also on record: endogenous in cells; host or cells: human whole blood, aspirin-pretreated, LPS-stimulated. As to the method:
(§1) The use of human blood for the whole blood assay was duly approved by the institutional ethical committee of the University for human subjects. Production of prostaglandin PGE2 during lipopolysaccharide (LPS) stimulated whole blood was used to quantify COX-2 inhibitory activity whereas calcium ionophore (A23187) stimulated thromboxane (TxB2) production was used to measure COX-1 inhibitory activity of the compounds.
COX-2 assay was performed by inactivating COX-1 with 50 µL aspirin (10 µg/mL) per 400 µL of blood sample.

For experiment [4], the target named is T2, COX-1 (Ovis aries, UniProt P05979).
T2 construct: purchased Cayman Chemical Co. 560131
T2 sequence (P05979 25-600): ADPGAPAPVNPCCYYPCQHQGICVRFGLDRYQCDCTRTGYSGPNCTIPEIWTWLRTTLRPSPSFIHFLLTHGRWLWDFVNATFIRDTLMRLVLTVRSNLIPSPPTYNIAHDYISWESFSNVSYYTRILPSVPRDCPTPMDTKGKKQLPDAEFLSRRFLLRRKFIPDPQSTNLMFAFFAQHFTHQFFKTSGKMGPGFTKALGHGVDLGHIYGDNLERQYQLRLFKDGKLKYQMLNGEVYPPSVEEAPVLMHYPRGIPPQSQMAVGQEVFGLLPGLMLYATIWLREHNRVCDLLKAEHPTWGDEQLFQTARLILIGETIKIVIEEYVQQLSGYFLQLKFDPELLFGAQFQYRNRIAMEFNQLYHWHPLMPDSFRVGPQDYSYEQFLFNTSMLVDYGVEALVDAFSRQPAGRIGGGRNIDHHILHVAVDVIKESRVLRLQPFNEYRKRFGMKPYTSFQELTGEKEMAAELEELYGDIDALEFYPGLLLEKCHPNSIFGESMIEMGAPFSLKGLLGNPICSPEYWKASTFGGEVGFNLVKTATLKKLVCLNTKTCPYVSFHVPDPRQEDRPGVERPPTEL
As to the kind of experiment: Isothermal titration calorimetry with COX-1. The following applies: ITC. In kind it is binding. The procedure:
100 µM solution of the compound in HPLC grade DMSO and Tris-HCl buffer (1:9) (pH 7.4) was prepared. 5 µL of enzyme was diluted with 500 µL Tris-HCl buffer. 19 consecutive injections of 2 µL each at 120 s interval were made to the enzyme solution taken in the sample cell. The heat change in the cell was determined. The control titrations for determining the background heat (that was subtracted from the main experiment) were performed by taking buffer solution in the cell and making successive additions of the titrant. The titration heat profiles and the binding parameters were read with Microcal software origin 7.0.
On the technique in general: In ITC the heat of successive injections is recorded.

Experiment [5] has as its target T3, 5-LOX (Soybean lipoxygenase) (Glycine max, UniProt P08170).
T3 construct: purchased Cayman Chemical Co. 760700
T3 sequence (P08170 1-839): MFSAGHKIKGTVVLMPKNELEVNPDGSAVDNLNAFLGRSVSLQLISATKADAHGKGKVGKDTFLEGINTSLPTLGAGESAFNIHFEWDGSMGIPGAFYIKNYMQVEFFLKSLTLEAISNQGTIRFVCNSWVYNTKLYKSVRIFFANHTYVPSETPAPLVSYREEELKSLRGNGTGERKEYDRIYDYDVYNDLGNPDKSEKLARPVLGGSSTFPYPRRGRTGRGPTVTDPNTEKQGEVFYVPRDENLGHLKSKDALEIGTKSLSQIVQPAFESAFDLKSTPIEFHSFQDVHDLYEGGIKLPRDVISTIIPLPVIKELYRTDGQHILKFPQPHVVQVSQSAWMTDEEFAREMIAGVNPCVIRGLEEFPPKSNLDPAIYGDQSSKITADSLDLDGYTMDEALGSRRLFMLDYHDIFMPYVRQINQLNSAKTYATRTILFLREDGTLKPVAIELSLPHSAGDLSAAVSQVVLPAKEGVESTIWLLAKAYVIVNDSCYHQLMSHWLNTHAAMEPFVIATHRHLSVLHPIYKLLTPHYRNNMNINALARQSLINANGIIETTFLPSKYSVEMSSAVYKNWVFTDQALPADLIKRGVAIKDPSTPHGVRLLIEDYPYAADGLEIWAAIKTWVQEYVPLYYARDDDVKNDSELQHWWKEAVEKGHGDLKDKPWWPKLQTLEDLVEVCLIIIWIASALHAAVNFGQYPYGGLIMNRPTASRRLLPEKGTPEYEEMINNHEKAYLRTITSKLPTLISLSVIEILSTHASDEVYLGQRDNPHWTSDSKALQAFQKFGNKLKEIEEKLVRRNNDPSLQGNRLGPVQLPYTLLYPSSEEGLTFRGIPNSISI
As to the kind of experiment: Lipoxygenase inhibitory activity assay. The format is biochemical. As to the method: 10 µL of the compound of each concentration was mixed with 90 µL 5-LOX (Soybean lipoxygenase in assay buffer) in the specified wells of the 96-well plate. Two wells containing assay buffer and AA acted as blanks whereas four wells, each carrying enzyme and AA, were positive controls. 10 µL AA was added to each test well and the plate was shaken for 5 min. Chromogen (100 µL) was added to each well and the plate was again shaken for 5 min. The absorbance of each well at 490 nm was recorded on microplate scanning spectrophotometer. As per the protocol given with the assay kit, the 5-LOX inhibitory activity for each compound at each concentration was determined using the mean of the two values (duplicate experiments) with deviation <5%.

For experiment [6], the target named is T4, COX-1 (Homo sapiens, UniProt P23219).
T4 construct: endogenous in cells; host or cells: human whole blood (heparinized, venipuncture)
T4 sequence (P23219 24-599): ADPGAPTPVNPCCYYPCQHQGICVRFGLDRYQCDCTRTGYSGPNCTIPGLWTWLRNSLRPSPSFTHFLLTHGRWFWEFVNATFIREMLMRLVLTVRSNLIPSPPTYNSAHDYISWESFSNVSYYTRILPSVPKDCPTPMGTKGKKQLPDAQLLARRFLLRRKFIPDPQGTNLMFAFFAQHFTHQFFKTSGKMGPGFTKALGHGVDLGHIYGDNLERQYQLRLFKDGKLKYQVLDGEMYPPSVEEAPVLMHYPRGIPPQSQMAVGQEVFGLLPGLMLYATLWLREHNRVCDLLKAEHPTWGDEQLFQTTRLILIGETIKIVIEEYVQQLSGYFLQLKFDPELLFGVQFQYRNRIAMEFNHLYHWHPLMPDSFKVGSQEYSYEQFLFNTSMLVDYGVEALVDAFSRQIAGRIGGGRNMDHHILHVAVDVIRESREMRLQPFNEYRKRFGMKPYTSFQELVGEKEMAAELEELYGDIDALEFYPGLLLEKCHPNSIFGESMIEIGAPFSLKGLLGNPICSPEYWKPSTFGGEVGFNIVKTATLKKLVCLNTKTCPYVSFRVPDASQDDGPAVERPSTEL
As to the kind of experiment: Human whole blood assay for COX-1 (A23187 stimulated TxB2). In kind it is cell-based.
From the text: as §1
Approval for the use of human blood was taken from the institutional ethical committee of Guru Nanak Dev University Amritsar and informed consent was obtained from the subject[32],[33]. All experiments were performed in accordance with the relevant guidelines and regulations. By venipuncture, the blood sample was collected in heparinized tubes. […] Each sample in duplicate was assayed for TxB2 (the breakdown product of TxA2) using TXB2 Express ELISA kit (Cayman Chemicals, Ann Arbor, MI) by the reported protocol.

Experiment [7] concerns the target T2, COX-1. The following applies: previously reported compounds 1 and 2; cited from earlier work.

By IC50 is commonly meant the concentration that gives 50% inhibition.

`COc1ccc2c(c1)c(CC(=O)O)c(C)n2C(=O)c1ccc(Cl)cc1` [Indomethacin, reference compound]: the “effect on pre-existing paw edema (paw thickness)” value in experiment [1] (after 5 h of treatment) is on record as “decrease paw edema”. Further, in experiment [1] (after 24 h of treatment), the “duration of decrease in paw edema” value is on record as “sustained even after 24 h”. For the same compound, in experiment [2], the “effect on number of acetic acid induced writhing vs control” value was “significantly decreased”.
Consider `O=C1NC(=O)C(=Cc2cn(C[C@H](O)Cn3c4ccccc4c(=O)c4ccccc43)c3ccccc23)C(=O)N1` [(S)-3a], for which the “reduction of carrageenan induced inflammation” value in experiment [3] (10 mg kg^−1) is 25%. Moreover, the “effect on paw inflammation compared with indomethacin” value in experiment [3] (end of 4th and 5th hour) is reported as “comparable to that of indomethacin”. The “effect on carageenan induced paw inflammation (paw thickness)” value in experiment [3] (ip 30 min before carageenan, measured up to 5th hour) was “Significant decrease”. Also, the “effect on LPS stimulated PGE2 production” value on COX-2 (1 µM) was “inhibited LPS stimulated PGE2 production”. The “Production of PGE2, +LPS” value at COX-2 (final conc 1 µM, LPS 10 µg mL^−1) was 0.93 ± 0.1 ng/mL. Also, at COX-1 [4], the TΔS was -0.829 kcal/mol, the ΔG was -4.304 kcal/mol and the ΔH is -5.134 kcal/mol. In experiment [5], the IC50 was found to be 0.2 ± 0.015 µM. Besides, the “effect on ionophore stimulated TxB2 production” value at COX-1 [6] (1 µM) is listed as “had no effect”. The “Production of TXB2, +Ca^2+ Ionophore” value at COX-1 [6] (final conc 1 µM, A23187 50 µM) is listed as 1.95 ± 0.01 ng/mL.
Turning to `CC1=NN(c2cccc(Cl)c2)C(=O)C1=Cc1cn(CCCOc2cc(O)c3c(=O)cc(-c4ccccc4)oc3c2)c2ccccc12` [Compound 1], the half-maximal inhibitory concentration (IC50) at COX-1 [7] was 118 ± 5.5 µM.

Values taken from article PMC6030096, “Synergy of Physico-chemical and Biological Experiments for Developing a Cyclooxygenase-2 Inhibitor” (Scientific Reports, 2018).
